The subject of the test is HCT116 MTAP-deleted cell lines. In words: Cell viability assay (CellTiter-Glo, 7 days), HCT116 MTAP-deleted. The settings on record: Homo sapiens, HCT-116, HCT116 MTAP-deleted, class symbols, read-out: CC50. It counts as cell-based. An outline of the steps:
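Read-out was CellTiter-Glo luminescence after a 7-day incubation (37 °C, 5% CO2) of HCT116 cells, MTAP-deleted or WT, on dose-response compound plates. CC50 values come from each line; where marked *, selectivity is overstated because poor solubility impaired the WT CC50 measurement.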
In general terms: In ATP-based viability assays light output follows the ATP content of the culture.

This is an account of results in patent US12448388B2, “PRMT5 inhibitors and uses thereof” (Gilead Sciences, Inc., priority 2023, dated 2025).

Each structure is given as a SMILES string. Read-outs that look alike come from different tables or passages of the source.

As usually defined, the CC50 is the concentration at which the toxic effect on the cells reaches its halfway point. For the compound `CN(C(=O)c1cc2c(cc1F)nc(N)c1cncn12)[C@@H]1COc2cc(C(F)F)ccc21` [Ff-576, (S)-4-amino-N-(6-(difluoromethyl)-2,3-dihydrobenzofuran-3-yl)-7-fluoro-N-methylimidazo[1,5-a]quinoxaline-8-carboxamide], the CC50 (cell viability assay) lay in the range of 100 to 1000 nM.
For the compound `Nc1nc2cc(F)c(C(=O)N3CCC[C@H]4Oc5cc(OC(F)(F)F)c(F)cc5[C@H]43)cc2n2cncc12` (single isomer, unassigned) [Ff-397], the CC50 (cell viability assay) was 100 to 1000 nM.
As to `Nc1nc2cnc(C(=O)N3CCCC[C@@H]3c3ccc(C(F)(F)F)cc3)cc2n2cncc12` [Ff-87, (R)-(4-aminoimidazo[1,5-a]pyrido[3,4-e]pyrazin-8-yl)(2-(4-(trifluoromethyl)phenyl)piperidin-1-yl)methanone], the CC50 (cell viability) is below 100 nM.
For the compound `CN(C(=O)c1cc2c(cc1F)nc(N)c1cncn12)[C@@H]1COc2cc(OC(F)F)cc(F)c21` [Ff-585], the CC50 (cell viability assay) was below 100 nM.
Consider `Nc1nc2cc(F)c(C(=O)N3CCCC[C@@H]3c3ccc(C(F)(F)F)cc3F)cc2n2cncc12` (single isomer, unassigned) [Ff-151], for which the CC50 (cell viability) is below 100 nM.
For `CN(C(=O)c1cc2c(cc1F)nc(N)c1cncn12)[C@@H]1COc2cc(C#CC3(C(F)(F)F)CC3)ccc21` [Ff-522, (S)-4-amino-7-fluoro-N-methyl-N-(6-((1-(trifluoromethyl)cyclopropyl)ethynyl)-2,3-dihydrobenzofuran-3-yl)imidazo[1,5-a]quinoxaline-8-carboxamide], for the setting “cell viability assay”, the 50% cytotoxic concentration (CC50) was 100 to 1000 nM.
For `Nc1nc2cc(F)c(C(=O)N(Cc3ccc(C(F)(F)F)cc3F)c3cnn4ccccc34)cc2n2cncc12` [Ff-424, 4-amino-7-fluoro-N-[[2-fluoro-4-(trifluoromethyl)phenyl]methyl]-N-pyrazolo[1,5-a]pyridin-3-yl-imidazo[1,5-a]quinoxaline-8-carboxamide], where the note is “cell viability assay”, the CC50 is below 100 nM.
For `Cc1ncc2c(N)nc3ccc(C(=O)N4CCC5(CC4)C(=O)Nc4ccccc45)cc3n12` [Ff-65, 1′-(4-amino-1-methylimidazo[1,5-a]quinoxaline-8-carbonyl)spiro[indoline-3,4′-piperidin]-2-one], the CC50 (cell viability) was above 1000 nM.
Take `Nc1nc2cc(F)c(C(=O)N3CCO[C@@H]4Cc5cc(C(F)(F)F)cc(F)c5[C@@H]43)cc2n2cncc12` [Ff-539, (4-amino-7-fluoroimidazo[1,5-a]quinoxalin-8-yl)((4aS,9aR)-5-fluoro-7-(trifluoromethyl)-2,3,9,9a-tetrahydroindeno[2,1-b][1,4]oxazin-4(4aH)-yl)methanone]: the CC50 (cell viability assay) was below 100 nM.
Take `C[C@@H]1C[C@@H]2Oc3nc(C(F)(F)F)ccc3[C@@H]2N(C(=O)c2cc3c(cc2F)nc(N)c2cncn23)C1` [Ff-375, (4-amino-7-fluoroimidazo[1,5-a]quinoxalin-8-yl)((3R,4aS,9bS)-3-methyl-7-(trifluoromethyl)-3,4,4a,9b-tetrahydrofuro[2,3-b:4,5-b′]dipyridin-1(2H)-yl)methanone]: the CC50 (cell viability assay) was below 100 nM.
For the compound `CO[C@@H]1Cc2cc(-c3cnn(C(F)F)c3)ccc2[C@@H]1N(C)C(=O)c1cc2c(cc1F)nc(N)c1cncn12` [Ff-580, 4-amino-N-((1S,2R)-5-(1-(difluoromethyl)-1H-pyrazol-4-yl)-2-methoxy-2,3-dihydro-1H-inden-1-yl)-7-fluoro-N-methylimidazo[1,5-a]quinoxaline-8-carboxamide], the CC50 (cell viability assay) lay within 100 to 1000 nM.
As to `Nc1nc2cc(F)c(C(=O)N3CCO[C@@H]4Cc5c(cc(F)c(Br)c5F)[C@@H]43)cc2n2cncc12` [Ff-161, (4-amino-7-fluoroimidazo[1,5-a]quinoxalin-8-yl)((4aS,9aR)-7-bromo-6,8-difluoro-2,3,9,9a-tetrahydroindeno[2,1-b][1,4]oxazin-4(4aH)-yl)methanone], where the note is “cell viability”, the CC50 was in the range of 100 to 1000 nM.
For the compound `Cc1ncc2c(N)nc3cnc(C(=O)N4C[C@@H](F)C[C@@H]5Oc6cc(C(F)(F)F)ccc6[C@@H]54)cc3n12` [Ff-656, (4-amino-1-methylimidazo[1,5-a]pyrido[3,4-e]pyrazin-8-yl)((3S,4aS,9bS)-3-fluoro-7-(trifluoromethyl)-3,4,4a,9b-tetrahydrobenzofuro[3,2-b]pyridin-1(2H)-yl)methanone], the CC50 (cell viability assay) is below 100 nM.
As for `CN(C(=O)c1cc2c(cc1Cl)nc(N)c1cncn12)[C@@H]1COCc2nc(C(F)(F)F)ccc21` [Ff-308, (S)-4-amino-7-chloro-N-methyl-N-(2-(trifluoromethyl)-5,8-dihydro-6H-pyrano[3,4-b]pyridin-5-yl)imidazo[1,5-a]quinoxaline-8-carboxamide], the CC50 (cell viability) is below 100 nM.
On to `CN(Cc1ccn(-c2ccccc2)n1)C(=O)c1cc2c(cc1F)nc(N)c1cncn12` [Ff-454, 4-amino-7-fluoro-N-methyl-N-((1-phenyl-1H-pyrazol-3-yl)methyl)imidazo[1,5-a]quinoxaline-8-carboxamide], for which, for the setting “cell viability assay”, the CC50 lay within 100 to 1000 nM.
Take `Nc1nc2ccc(C(=O)N3CCC[C@@H]4Oc5cc(OC(F)(F)F)c(F)cc5[C@@H]43)cc2n2cncc12` [Ff-377, (4-aminoimidazo[1,5-a]quinoxalin-8-yl)((4aS,9bS)-8-fluoro-7-(trifluoromethoxy)-3,4,4a,9b-tetrahydrobenzofuro[3,2-b]pyridin-1(2H)-yl)methanone]: the CC50 (cell viability assay) was below 100 nM.
Regarding `Cn1cc(N(Cc2ccc(-c3cnn(C(F)F)c3)cc2F)C(=O)c2cc3c(cc2F)nc(N)c2cncn23)cn1` [Ff-221, 4-amino-N-(4-(1-(difluoromethyl)-1H-pyrazol-4-yl)-2-fluorobenzyl)-7-fluoro-N-(1-methyl-1H-pyrazol-4-yl)imidazo[1,5-a]quinoxaline-8-carboxamide], the CC50 (cell viability) was below 100 nM.
On to `N#Cc1cc2nc(N)c3cncn3c2cc1C(=O)N1CCC[C@@H]2Oc3cc(OC(F)(F)F)ccc3[C@@H]21` [Ff-349, 4-amino-8-((4aS,9bS)-7-(trifluoromethoxy)-1,2,3,4,4a,9b-hexahydrobenzofuro[3,2-b]pyridine-1-carbonyl)imidazo[1,5-a]quinoxaline-7-carbonitrile], for which the CC50 (cell viability) is below 100 nM.
As for `N#C[C@@H]1C[C@H]1c1ccc2c(c1)C[C@H]1OCCN(C(=O)c3cc4c(cc3F)nc(N)c3cncn34)[C@@H]21` [Ff-448, Trans-2-[(4aS,9aR)-4-(4-amino-7-fluoro-imidazo[1,5-a]quinoxaline-8-carbonyl)-3,4a,9,9a-tetrahydro-2H-indeno[2,1-b][1,4]oxazin-7-yl]cyclopropanecarbonitrile], the CC50 (cell viability assay) is below 100 nM.
For the compound `Nc1nc2ccc(C(=O)N(Cc3ccc(-n4ccnc4)cc3Cl)C34CC(C3)C4)cc2n2cncc12` [Ff-63, 4-amino-N-(bicyclo[1.1.1]pentan-1-yl)-N-(2-chloro-4-(1H-imidazol-1-yl)benzyl)imidazo[1,5-a]quinoxaline-8-carboxamide], under “cell viability”, the CC50 lay within 100 to 1000 nM.
For the compound `C[C@@H]1C[C@@H]2OCc3nc(C(F)(F)F)ccc3[C@@H]2N(C(=O)c2cc3c(cc2F)nc(N)c2cncn23)C1` (racemic) [Ff-323, Rac-(4-amino-7-fluoroimidazo[1,5-a]quinoxalin-8-yl)((3R,4aS,10bS)-3-methyl-8-(trifluoromethyl)-2,3,4,4a,6,10b-hexahydro-1H-pyrano[3,2-b:5,4-b′]dipyridin-1-yl)methanone], the CC50 (cell viability) was below 100 nM.
On to `CC(C)N(Cc1ccc(-c2ccc[nH]c2=O)cc1F)C(=O)c1cc2c(cc1F)nc(N)c1cncn12` [Ff-594, 4-amino-7-fluoro-N-(2-fluoro-4-(2-oxo-1,2-dihydropyridin-3-yl)benzyl)-N-isopropylimidazo[1,5-a]quinoxaline-8-carboxamide], for which the CC50 (cell viability assay) was 100 to 1000 nM.
For the compound `Nc1nc2cc(F)c(C(=O)N3CCCC4OCc5cc(C(F)(F)F)ccc5C43)cc2n2cncc12` (centres unmarked) [Ff-43, (4-amino-7-fluoroimidazo[1,5-a]quinoxalin-8-yl)(8-(trifluoromethyl)-2,3,4,4a,6,10b-hexahydro-1H-isochromeno[4,3-b]pyridin-1-yl)methanone], the half-maximal cytotoxic concentration (CC50) (cell viability) was below 100 nM.
On the same count and under the same terms, for `Nc1nc2cc(F)c(C(=O)N3CCC[C@@H]4Cc5nc(C(F)(F)F)ccc5[C@@H]43)cc2n2cncc12` (racemic) [Ff-314, Rac-(4-amino-7-fluoroimidazo[1,5-a]quinoxalin-8-yl)((4bR,8aR)-2-(trifluoromethyl)-4b,6,7,8,8a,9-hexahydro-5H-cyclopenta[1,2-b:3,4-b′]dipyridin-5-yl)methanone] the value was below 100 nM.
Take `CN(C(=O)c1cc2c(cc1F)nc(N)c1cncn12)C1CCCc2cc(C(F)(F)F)ccc21` (centres unmarked) [Ff-430, 4-amino-7-fluoro-N-methyl-N-[6-(trifluoromethyl)tetralin-1-yl]imidazo[1,5-a]quinoxaline-8-carboxamide]: the CC50 (cell viability assay) fell in the range of 100 to 1000 nM.
As for `CN(C(=O)c1cc2c(cc1F)nc(N)c1cncn12)[C@@H]1COc2cc(OC(F)F)ccc21` (single isomer, unassigned) [Ff-559], the CC50 (cell viability assay) is below 100 nM.
As for `CN(C(=O)c1cc2c(cc1F)nc(N)c1cncn12)C1COCc2nc(Br)ccc21` (centres unmarked) [Ff-275, 4-amino-N-(2-bromo-5,8-dihydro-6H-pyrano[3,4-b]pyridin-5-yl)-7-fluoro-N-methylimidazo[1,5-a]quinoxaline-8-carboxamide], the CC50 (cell viability) is below 100 nM.
Consider `CN(C(=O)c1cc2c(cn1)nc(N)c1cncn12)[C@@H]1COc2cc(C34CC(C(F)F)(C3)C4)ccc21` [Ff-451, (S)-4-amino-N-(6-(3-(difluoromethyl)bicyclo[1.1.1]pentan-1-yl)-2,3-dihydrobenzofuran-3-yl)-N-methylimidazo[1,5-a]pyrido[3,4-e]pyrazine-8-carboxamide], for which the CC50 (cell viability assay) is below 100 nM.
Turning to `Cc1ncn2c1c(N)nc1cc(F)c(C(=O)N(C)C3CCc4nc(C(F)(F)F)ccc43)cc12` (centres unmarked) [Ff-68, 4-amino-7-fluoro-N,3-dimethyl-N-(2-(trifluoromethyl)-6,7-dihydro-5H-cyclopenta[b]pyridin-5-yl)imidazo[1,5-a]quinoxaline-8-carboxamide], the CC50 (cell viability) was below 100 nM.
